We go through four compounds from paper PMC9913351, “Computational Approach to Drug Penetration across the Blood-Brain and Blood-Milk Barrier Using Chromatographic Descriptors” (Cells, 2023).

The conditions of data set [1]: ratio of drug concentration in milk and plasma; cited from earlier work.
Data set [2] can be described thus: HPLC on immobilized artificial membrane column (HPLC-IAM). The data set is classed as physicochemical. The settings on record: for log kIAM: logarithm of retention factor, mobile phase pH 7.4; for kIAM: retention factor, phosphate buffer pH 7.4/acetonitrile 80:20.
From the text: (§1) Chromatographic data: Rf and log k parameters were obtained experimentally; Rf (retardation factor) is the ratio of the mobile phase distance travelled to the API distance travelled on the TLC plate. HPLC parameter: log k (logarithm of the retention factor), where k is the ratio between the amount of API in the stationary phase to its amount in the mobile phase, and it was obtained from the equation k = (tR − tM)/tM (tR—retention time; tM—void time).
Drugs were subjected to an affinity chromatography analysis for human and bovine plasma proteins in column (HPLC) and thin-layer (TLC) formats, respectively. […] The purity of the isolated substances was checked by TLC chromatography and densitometric scanning.
Organic solvents (acetonitrile and methanol) and water (J.T. Baker HPLC) were used in HPLC. Ammonium acetate (LACH-NER) was used to prepare the acetate buffer (HPLCHSA), while the phosphate buffer (HPLCIAM) was prepared using (Sigma, Phosphate buffered saline, tablets). The mobile phase for HPLCHSA was a mixture of 10 mM acetate buffer pH 7.4, acetonitrile and methanol in the ratio 85:10:5 (v/v/v). The mobile phase in the case of HPLCIAM was a mixture of 10 mM phosphate buffer pH 7.4 and acetonitrile in the ratio 80:20 (v/v). The parameter that was collected from the HPLC was the logarithm of the retention factor (log k), described as log k(HSA) or log k(IAM).
The target of data set [3] is T1, bovine serum albumin BSA (Bos taurus, UniProt P02769).
T1 construct: purchased Sigma Aldrich
Briefly: NP TLC on silica gel plates impregnated with bovine serum albumin. The data set is classed as in vitro ADME. The settings on record: for NP/C: Rf from BSA-modified NP plate / Rf from clear one (control); for NP: Rf value from NP plate impregnated with 2 mg/mL BSA solution, mobile phase pH 7.4.
From the text: (§2) Chromatographic data: Rf and log k parameters were obtained experimentally; Rf (retardation factor) is the ratio of the mobile phase distance travelled to the API distance travelled on the TLC plate.
(§3) Drugs were subjected to an affinity chromatography analysis for human and bovine plasma proteins in column (HPLC) and thin-layer (TLC) formats, respectively. A total of 37 active substances were isolated with methanol extraction from pharmaceutical preparations. The purity of the isolated substances was checked by TLC chromatography and densitometric scanning.
(§4) For TLC chromatography, 20 × 20 cm glass plates from Merck that were covered with silica gel and a fluorescent indicator were used. Normal phase (NP) plates were used with regular Merck TLC Silica gel 60 F254 plates, while in the reverse phase (RP), silanized plates RP-2: Merck TLC Silica gel 60 RP-2 F254, silanized. The mobile phase was buffered with ammonium acetate to pH 7.4 (LACH-NER, Ammonium acetate). Composition of the mobile phase: - water, methanol and acetonitrile, with HPLC gradient class (60:20:20 (v/v/v)).
(§5) The stationary phase of the plates, both NP and RP-2, was modified with an aqueous solution of bovine serum albumin BSA (Sigma Aldrich bovine serum albumin, lyophilized powder). The unfolded protein-impregnated plates and control plates were scanned with a Desaga CD 60 densitometer. The Rf values (described in the article as NP and RP, respectively) were determined. Analytical wavelengths were selected individually for each API by means of multi-wavelength scanning (200 to 300 nm).

For data set [4], the target named is T1, bovine serum albumin BSA. Nature of the data set: RP TLC on silanized RP-2 plates impregnated with bovine serum albumin. The data set is classed as in vitro ADME. As to conditions: for RP/C: Rf from BSA-modified RP-2 plate / Rf from clear one (control); for RP: Rf value from RP plate impregnated with 2 mg/mL BSA solution, mobile phase pH 7.4.
From the text: as §2, §3, §4, §5
Data set [5] in a line: RP TLC on unimpregnated RP-2 control plate. The data set is classed as physicochemical. As to conditions: Rf value from unimpregnated RP plate (control); mobile phase pH 7.4.
From the text: as §2, §3, §4, §5
Data set [6] in a line: NP TLC on unimpregnated control plate. The data set is classed as physicochemical. The settings on record: Rf value from unimpregnated NP plate (control); mobile phase pH 7.4.
From the text: as §2, §3, §4, §5
Data set [7] addresses T2, human serum albumin HSA (Homo sapiens, UniProt P02768).
T2 construct: 4 × 10 mm
Briefly: HPLC on immobilized human serum albumin column (HPLC-HSA). The data set is classed as in vitro ADME. As to conditions: for log kHSA: logarithm of retention factor, mobile phase pH 7.4; for kHSA: retention factor, acetate buffer pH 7.4/acetonitrile/methanol 85:10:5.
From the text: as §1
Drugs were subjected to an affinity chromatography analysis for human and bovine plasma proteins in column (HPLC) and thin-layer (TLC) formats, respectively.
Ammonium acetate (LACH-NER) was used to prepare the acetate buffer (HPLCHSA), while the phosphate buffer (HPLCIAM) was prepared using (Sigma, Phosphate buffered saline, tablets). The mobile phase for HPLCHSA was a mixture of 10 mM acetate buffer pH 7.4, acetonitrile and methanol in the ratio 85:10:5 (v/v/v). […] The parameter that was collected from the HPLC was the logarithm of the retention factor (log k), described as log k(HSA) or log k(IAM).

Details of data set [8]: method as in earlier work. The settings on record: code describing the acid-base properties; source Chembl; cited from earlier work.
Throughout, for a/b/n code: key: (-1) - acids; (0) - neutrals; (1) - bases.

T2 sequence (P02768 25-609): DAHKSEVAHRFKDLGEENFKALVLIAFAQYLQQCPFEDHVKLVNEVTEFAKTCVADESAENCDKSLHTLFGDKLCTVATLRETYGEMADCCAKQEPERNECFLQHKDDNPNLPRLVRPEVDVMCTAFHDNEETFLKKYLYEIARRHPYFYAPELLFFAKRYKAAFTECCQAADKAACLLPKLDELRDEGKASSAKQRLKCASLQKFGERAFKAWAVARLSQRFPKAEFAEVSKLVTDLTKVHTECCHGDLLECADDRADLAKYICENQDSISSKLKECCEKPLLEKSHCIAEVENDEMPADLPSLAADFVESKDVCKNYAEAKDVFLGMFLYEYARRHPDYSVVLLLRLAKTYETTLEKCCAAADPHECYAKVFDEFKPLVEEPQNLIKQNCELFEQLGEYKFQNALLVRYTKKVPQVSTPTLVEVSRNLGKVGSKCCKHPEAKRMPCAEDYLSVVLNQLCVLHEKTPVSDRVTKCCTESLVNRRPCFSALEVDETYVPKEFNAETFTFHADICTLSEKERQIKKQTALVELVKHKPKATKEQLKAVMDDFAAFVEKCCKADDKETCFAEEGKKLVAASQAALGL
T1 sequence (P02769 25-607): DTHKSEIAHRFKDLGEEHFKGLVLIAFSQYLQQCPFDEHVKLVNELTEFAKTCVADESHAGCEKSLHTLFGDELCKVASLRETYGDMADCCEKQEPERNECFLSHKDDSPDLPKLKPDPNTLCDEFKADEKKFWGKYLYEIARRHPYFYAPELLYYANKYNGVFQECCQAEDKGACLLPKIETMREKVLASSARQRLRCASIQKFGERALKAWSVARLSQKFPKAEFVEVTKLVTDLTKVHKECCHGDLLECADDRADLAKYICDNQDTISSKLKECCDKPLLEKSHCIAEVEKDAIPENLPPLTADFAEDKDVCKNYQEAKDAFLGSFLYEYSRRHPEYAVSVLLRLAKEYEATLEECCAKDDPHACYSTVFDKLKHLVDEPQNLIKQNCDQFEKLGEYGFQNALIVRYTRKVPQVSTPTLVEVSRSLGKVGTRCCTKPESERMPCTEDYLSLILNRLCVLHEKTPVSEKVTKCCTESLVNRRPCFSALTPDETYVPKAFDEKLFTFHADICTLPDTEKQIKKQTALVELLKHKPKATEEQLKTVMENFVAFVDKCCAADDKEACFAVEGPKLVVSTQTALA

Turning to `CN[C@H]1CC[C@@H](c2ccc(Cl)c(Cl)c2)c2ccccc21` [sertraline], the M/P ratio result in data set [1] is recorded as “above 1”.
With `CC[C@@H](C(N)=O)N1CCCC1=O` [levetiracetam], in data set [2], the “log kIAM” value is recorded as 0.21 and the kIAM turned out to be 1.62. In data set [3], the NP/C worked out at 1.00 and the NP is on record as 0.92. In data set [4], the RP/C is given as 1.00 and the RP turned out to be 0.92. In addition, the CRP in data set [5] came to 0.92. This compound yielded a CNP in data set [6] of 0.92. In addition, in data set [7], the “log kHSA” value is recorded as -1.16 and the kHSA stood at 0.07. The a/b/n code in data set [8] is reported as 0.
`CCOC(=O)C1=C(C)NC(C)=C(C(=O)OC)C1c1cccc([N+](=O)[O-])c1` (stereo not shown) [nitrendipine]: in data set [2], the “log kIAM” value was found to be 0.47 and the kIAM is recorded as 2.98. In data set [3], this compound gave an NP/C of 1.00 and an NP of 0.97. In data set [4], this compound registered an RP/C of 1.00 and an RP of 0.86. The compound also registered a CRP in data set [5] of 0.86. The CNP in data set [6] came to 0.97. Moreover, in data set [7], the “log kHSA” value was 0.55 and the kHSA was determined as 3.55. In addition, the a/b/n code in data set [8] is given as 0.
`O=C(c1ccccc1)c1ccc2n1CCC2C(=O)O` (stereo not shown) [ketorolac]: in data set [2], the “log kIAM” value is reported as 0.38 and the kIAM was 2.39. Also, in data set [3], the NP/C is 0.99 and the NP is reported as 0.91. Besides, in data set [4], the RP/C was found to be 1.00 and the RP amounted to 0.96. Moreover, the CRP in data set [5] turned out to be 0.96. In data set [6], this compound showed a CNP of 0.92. For the same compound, in data set [7], the “log kHSA” value is recorded as 0.98 and the kHSA is given as 9.65. In addition, the a/b/n code in data set [8] was -1.
